According to ChEMBL document CHEMBL3763102, “4-Aryl-3-arylsulfonyl-quinolines as negative allosteric modulators of metabotropic GluR5 receptors: From HTS hit to development candidate” (Bioorg Med Chem Lett, 2016):
Active and inactive are the calls of the source. No cut-off for these calls is given here.

What was measured:
Homo sapiens [1] = assay: Toxicity in human assessed as change in ECG administered as qd for 10 to 14 days by multiple ascending dose study; format: organism-based; conditions: in vivo
Rattus norvegicus [2] = assay: Anxiolytic activity in water deprived rat assessed as increase in number of accepted shocks at 1 mg/kg, po after 1 hr by Vogel punished drinking test; format: functional, organism-based
Homo sapiens [3] = organism: Homo sapiens; assay: Toxicity in human at 1 to 120 mg by single ascending dose study; format: organism-based; conditions: in vivo
Homo sapiens [4] = assay: Toxicity in human assessed as suicidal ideation and behavior administered as qd for 10 to 14 days by multiple ascending dose study; format: organism-based; conditions: in vivo
Liver microsome [5] = assay: Intrinsic clearance in human liver microsomes at 2.5 uM; format: ADME
Liver microsome [6] = assay: Intrinsic clearance in Wistar rat liver microsomes at 2.5 uM; format: ADME
Homo sapiens [7] = assay: Toxicity in human assessed as change in ECG administered as bid for 10 to 14 days by multiple ascending dose study; format: organism-based; conditions: in vivo
[8] = biological target: T1, Metabotropic glutamate receptor 5 (Rattus norvegicus, UniProt P31424); assay: Displacement of [3H]MPEP from rat mGlu5 receptor expressed in rat cerebrocortical membrane measured after 1 hr; format: cell membranes
Homo sapiens [9] = assay: Toxicity in human assessed as suicidal ideation and behavior administered as bid for 10 to 14 days by multiple ascending dose study; format: organism-based; conditions: in vivo
[10] = biological target: T2, Metabotropic glutamate receptor 5 (Homo sapiens, UniProt P41594); assay: Displacement of [3H]MPEP from recombinant human mGluR5a expressed in A18 cells measured after 1 hr; format: cell-based
[11] = biological target: T2, Metabotropic glutamate receptor 5; assay: Displacement of [3H]-MPEP from human mGlu5 receptor expressed in HEK293 cell membranes after 1 hr by scintillation counting analysis
[12] = biological target: T1, Metabotropic glutamate receptor 5; assay: Displacement of [3H]-MPEP from rat mGlu5 receptor expressed in HEK293 cell membranes after 1 hr by scintillation counting analysis
Rattus norvegicus [13] = assay: Anxiolytic activity in water deprived rat assessed as increase in number of accepted shocks at 10 mg/kg, po after 1 hr by Vogel punished drinking test; format: functional, organism-based

T1 sequence (P31424 whole entry): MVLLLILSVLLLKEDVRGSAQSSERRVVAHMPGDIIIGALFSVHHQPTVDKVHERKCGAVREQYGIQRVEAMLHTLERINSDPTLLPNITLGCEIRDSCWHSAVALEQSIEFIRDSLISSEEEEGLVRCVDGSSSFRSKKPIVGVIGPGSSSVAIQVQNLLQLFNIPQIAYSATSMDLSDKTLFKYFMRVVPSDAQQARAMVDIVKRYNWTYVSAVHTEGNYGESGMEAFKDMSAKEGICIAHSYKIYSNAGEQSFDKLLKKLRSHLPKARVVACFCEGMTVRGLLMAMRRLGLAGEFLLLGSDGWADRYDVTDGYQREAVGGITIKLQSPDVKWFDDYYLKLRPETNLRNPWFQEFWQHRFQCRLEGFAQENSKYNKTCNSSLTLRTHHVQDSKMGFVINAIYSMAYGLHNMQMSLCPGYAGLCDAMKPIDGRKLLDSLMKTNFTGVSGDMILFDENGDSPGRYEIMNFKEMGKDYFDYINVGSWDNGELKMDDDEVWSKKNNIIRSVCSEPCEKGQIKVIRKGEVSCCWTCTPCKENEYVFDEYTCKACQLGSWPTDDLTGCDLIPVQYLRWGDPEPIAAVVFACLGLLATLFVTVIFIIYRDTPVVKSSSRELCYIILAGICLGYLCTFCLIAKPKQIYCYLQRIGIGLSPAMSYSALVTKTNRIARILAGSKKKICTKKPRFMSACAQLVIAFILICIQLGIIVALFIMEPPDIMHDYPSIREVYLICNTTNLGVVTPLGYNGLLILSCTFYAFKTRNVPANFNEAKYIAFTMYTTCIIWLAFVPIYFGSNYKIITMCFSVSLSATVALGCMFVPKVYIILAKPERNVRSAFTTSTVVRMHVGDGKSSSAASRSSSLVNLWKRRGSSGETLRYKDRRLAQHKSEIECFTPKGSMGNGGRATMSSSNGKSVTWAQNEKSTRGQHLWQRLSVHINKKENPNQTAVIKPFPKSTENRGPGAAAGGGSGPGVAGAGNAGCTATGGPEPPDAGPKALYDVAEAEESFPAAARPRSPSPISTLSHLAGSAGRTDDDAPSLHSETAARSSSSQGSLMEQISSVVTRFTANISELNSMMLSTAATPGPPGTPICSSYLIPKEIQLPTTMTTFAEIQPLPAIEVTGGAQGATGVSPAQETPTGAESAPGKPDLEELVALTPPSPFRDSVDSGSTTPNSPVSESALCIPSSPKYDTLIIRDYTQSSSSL
T2 sequence (P41594 whole entry): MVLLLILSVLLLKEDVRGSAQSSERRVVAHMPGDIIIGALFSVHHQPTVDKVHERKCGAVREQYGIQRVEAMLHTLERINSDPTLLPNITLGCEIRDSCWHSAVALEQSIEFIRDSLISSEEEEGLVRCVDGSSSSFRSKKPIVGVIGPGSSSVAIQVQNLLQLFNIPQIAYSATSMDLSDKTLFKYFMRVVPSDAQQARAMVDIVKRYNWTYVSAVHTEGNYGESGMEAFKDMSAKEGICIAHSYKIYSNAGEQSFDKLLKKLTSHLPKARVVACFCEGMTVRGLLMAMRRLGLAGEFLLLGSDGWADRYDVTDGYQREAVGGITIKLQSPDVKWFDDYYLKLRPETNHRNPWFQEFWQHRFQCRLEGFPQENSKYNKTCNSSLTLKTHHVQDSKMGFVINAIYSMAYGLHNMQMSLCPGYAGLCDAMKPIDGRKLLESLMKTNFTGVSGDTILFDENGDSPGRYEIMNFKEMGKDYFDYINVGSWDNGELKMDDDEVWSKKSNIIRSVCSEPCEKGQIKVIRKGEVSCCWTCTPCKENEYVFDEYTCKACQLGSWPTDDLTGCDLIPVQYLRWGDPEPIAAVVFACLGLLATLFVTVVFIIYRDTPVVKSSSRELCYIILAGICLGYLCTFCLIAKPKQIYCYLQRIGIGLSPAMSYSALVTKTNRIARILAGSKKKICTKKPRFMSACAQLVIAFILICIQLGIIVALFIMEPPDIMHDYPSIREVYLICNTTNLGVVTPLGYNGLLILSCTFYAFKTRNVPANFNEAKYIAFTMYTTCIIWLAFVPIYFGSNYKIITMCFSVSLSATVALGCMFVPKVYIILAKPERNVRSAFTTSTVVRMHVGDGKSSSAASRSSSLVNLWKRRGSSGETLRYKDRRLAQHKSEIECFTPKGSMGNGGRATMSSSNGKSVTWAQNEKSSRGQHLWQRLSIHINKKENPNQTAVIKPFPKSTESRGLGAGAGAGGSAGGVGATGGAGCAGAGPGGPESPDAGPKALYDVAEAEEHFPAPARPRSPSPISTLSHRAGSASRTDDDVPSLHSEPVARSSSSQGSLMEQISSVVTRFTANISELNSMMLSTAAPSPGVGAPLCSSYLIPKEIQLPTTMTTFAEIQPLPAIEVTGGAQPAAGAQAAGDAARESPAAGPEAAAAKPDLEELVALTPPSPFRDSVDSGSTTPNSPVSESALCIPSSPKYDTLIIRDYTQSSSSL

N#Cc1cccc(S(=O)(=O)c2cnc3cc(F)ccc3c2-c2ccc(Cl)cc2)c1
Activity (Homo sapiens [1]): Non-toxic
Activity (Rattus norvegicus [2]): Active
Activity (Homo sapiens [3]): Non-toxic
Activity (Homo sapiens [4]): Non-toxic
CLH (Liver microsome [5]): 0.31 mL/min/g
CLH (Liver microsome [6]): 0.25 mL/min/g
Activity (Homo sapiens [7]): Non-toxic
Ki [8]: 5.3 nM
Activity (Homo sapiens [9]): Non-toxic

Cc1ccc(S(=O)(=O)c2cnc3ccccc3c2-c2ccc(Cl)cc2)cc1
Ki [10]: 17 nM
CLH (Liver microsome [5]): 2.12 mL/min/g
CLH (Liver microsome [6]): 17.5 mL/min/g
Ki [8]: 9.5 nM

Cc1ccc(S(=O)(=O)c2cnc3ccccc3c2N2CCC(C)CC2)cc1
CLH (Liver microsome [5]): 3.54 mL/min/g
CLH (Liver microsome [6]): 17.4 mL/min/g
Ki [8]: 22 nM

CN1CC(=O)N=C1NC(=O)Nc1cccc(Cl)c1 [FENOBAM ANHYDROUS]
IC50 [11]: 51 nM
IC50 [12]: 51 nM

Cc1nc(C#Cc2cccnc2)cs1
Activity (Rattus norvegicus [13]): Active

O=S(=O)(c1cc(Cl)cc(Cl)c1)c1cnc2cc(F)ccc2c1-c1ccc(F)cc1
CLH (Liver microsome [5]): 0.2 mL/min/g
CLH (Liver microsome [6]): 1.03 mL/min/g
Ki [8]: 11.5 nM

Cc1ccc(S(=O)(=O)c2sc3ncccc3c2-c2ccc(Cl)cc2)cc1
CLH (Liver microsome [5]): 2.31 mL/min/g
CLH (Liver microsome [6]): 13.8 mL/min/g
Ki [8]: 15 nM

Cc1ccc(S(=O)(=O)c2cnc3ccccc3c2N2CCOCC2)cc1C
Ki [10]: 52 nM
CLH (Liver microsome [5]): 3.37 mL/min/g
CLH (Liver microsome [6]): 18 mL/min/g
Ki [8]: 68 nM

O=S(=O)(c1ccc(Cl)c(F)c1)c1cnc2cc(F)ccc2c1-c1ccc(F)cc1
CLH (Liver microsome [5]): 0.5 mL/min/g
CLH (Liver microsome [6]): 0.88 mL/min/g
Ki [8]: 5.2 nM

O=S(=O)(c1ccc(F)c(F)c1)c1cnc2c(F)cccc2c1-c1ccc(Cl)cc1
CLH (Liver microsome [5]): 0.28 mL/min/g
CLH (Liver microsome [6]): 0.19 mL/min/g
Ki [8]: 8.4 nM
